Test results: publication PMC10525927, “First Generation of Antioxidant Precursors for Bioisosteric Se-NSAIDs: Design, Synthesis, and In Vitro and In Vivo Anticancer Evaluation” (Antioxidants, 2023)

Assays:
In vivo toxicity study = assay: In vivo toxicity study; design: species or system mice; settings: 7.5 mg/Kg IP thrice weekly, 27 days
Description: Female mice of 4–5 weeks of age (The Jackson Laboratory, Bar Harbor, ME, USA) were kept on the daily cycle of 12 h light/dark and received food and water ad libitum throughout the studies. All animal procedures were performed following the National Institutes of Health (NIH) Guide for the Care and Use of Laboratory Animals and protocols were approved by the Animal Care and Use Committee of the Penn State College of Medicine.
Mice were treated either with intraperitoneal doses of 7.5 mg/Kg of compound 5 or with DMSO (vehicle) thrice weekly and kept under observation for 27 days. Body weight, behavior, and food and water intake were monitored every alternate day. At the end of the study, animals were sacrificed by euthanizing the animals by CO2 asphyxiation. The blood serum was withdrawn and subjected to the biochemical analysis of creatinine (mg/dL), AST(SGOT) (U/L), ALT(SGPT) (U/L), Alk. Phos (U/L), and BUN (mg/dL).

[1] = system: DU-145 prostate cancer cells; assay: MTT cell viability assay, DU-145; type: cell-based; settings: mean ± SD
Description: (§1) The cell lines were purchased from the American Type Culture Collection (ATCC). The cancer cell lines DU-145, PC-3, T-47D, MDA-MB-231, H1299, and A549, and the non-tumorigenic cells (184B5 and BEAS-2B), were maintained in RPMI 1640 medium (Gibco, Alcobendas, Madrid, Spain) supplemented with 10% fetal bovine serum (FBS; Gibco) and 1% antibiotics (10.00 units/mL penicillin and 10.00 mg/mL streptomycin; Gibco). Colon cancer cells HT-29 and HCT-116 were cultured in McCoy’s 5A medium (Gibco) supplemented with 10% fetal bovine serum (FBS; Gibco) and 1% antibiotics (10.00 units/mL penicillin and 10.00 mg/mL streptomycin; Gibco). Cells were maintained in tissue culture flasks at 37 °C and 5% CO2. The culture medium was replaced every three days.
(§2) The antiproliferative activity and selectivity in vitro of the Se-NSAID derivatives were determined by the (3-(4,5-dimethylthiazol-2-yl)-2,5-diphenyltetrazolium bromide) (MTT) assay. Compounds were dissolved in DMSO at a concentration of 0.01 M and serial dilutions were prepared. The Se-NSAID derivatives were tested at seven concentrations ranging between 1 and 100 µM in the colon (HT-29 and HCT-116), prostate (DU-145 and PC-3), breast (MDA-MB-231 and T-47D), and lung (H1299 and A549) cancer cell lines. The non-tumorigenic breast (184B5) and lung (BEAS-2B) cell lines were also tested to assess the selectivity of the compounds following the same procedure. A total of 1 × 10^4 cells were seeded per well in 96-well plates and incubated at 5% CO2 and 37 °C for 24 h. Then, cells were treated with either DMSO or increasing concentrations of the corresponding Se-NSAID derivatives for 48 h. A volume of 20 µL of MTT (5 mg/mL) was added to each well 2.5 h before the termination point. At the end of the experiment, the medium was removed, and the resultant formazan crystals formed by mitochondrial reduction of MTT were dissolved in 50 µL of DMSO. Absorbance was measured at 550 nm. IC50, GI50, TGI, and LC50 values were calculated using OriginPro version 8.5.1. software by nonlinear curve fitting. Selectivity indexes (SI) were calculated as the ratio of the IC50 values determined for the nonmalignant and the tumoral cells in the breast (IC50 (184B5)/IC50 (MDA-MB-231) and IC50 (184B5)/IC50 (T-47D)) and lung (IC50 (BEAS-2B)/IC50 (H1299) and IC50 (BEAS-2B)/IC50 (A549)) cell lines. Data were obtained from at least three independent experiments performed in triplicates.

[2] = system: T-47D breast cancer cells; assay: MTT cell viability assay, T-47D; type: cell-based; settings: 48 h, mean ± SD
Description: as §1, §2

[3] = system: HCT-116 colon cancer cells; assay: MTT cell viability assay, HCT-116; type: cell-based; settings: mean ± SD
Description: as §1, §2

[4] = in vitro TGI concentration, 48 h, Table S1

Question: Which “blood serum biochemistry (creatinine, AST, ALT, Alk. Phos, BUN) vs vehicle” value (In vivo toxicity study; female nude mice, endpoint) does the source give for CC(C)Cc1ccc(C(C)C(=O)[Se][Se]C(=O)C(C)c2ccc(CC(C)C)cc2)cc1 (centres unmarked) [Compound 5, 2-(4-Isobutylphenyl)propanoic diselenoperoxyanhydride] here?
Answer: no significant changes

Question: What about the “behavior and food/water uptake” value (In vivo toxicity study; mice) of the same molecule?
Answer: no changes

Question: And the “body weight during treatment” value (In vivo toxicity study; mice)?
Answer: no appreciable variations

Question: And the “LD50 DU-145” value ([1]; 48 h, Table S1)?
Answer: 9.0 ± 0.4 µM

Question: What about the IC50 ([1]; Homo sapiens, DU-145, 48 h) of the same molecule?
Answer: 7 ± 1.3 µM

Question: And the GI50 ([1]; Homo sapiens, DU-145, 48 h, Table S1)?
Answer: 6 ± 1.3 µM

Question: What about the “TGI DU-145” value [1, 4] of the same molecule?
Answer: 7.3 ± 0.9 µM

Question: What about the “LD50 T-47D” value ([2]; Table S1) of the same molecule?
Answer: 4.2 ± 0.3 µM

Question: What about the IC50 ([2]; Homo sapiens, T47D) of the same molecule?
Answer: 3.8 ± 0.2 µM

Question: And the GI50 ([2]; Homo sapiens, T47D, Table S1)?
Answer: 1.8 ± 0.4 µM

Question: And the “TGI T-47D” value ([2]; in vitro TGI concentration, Table S1)?
Answer: 2.7 ± 0.3 µM

Question: And the IC50 ([3]; Homo sapiens, HCT-116, 48 h)?
Answer: 9 ± 3 µM

Question: What about the GI50 ([3]; Homo sapiens, HCT-116, 48 h, Table S1) of the same molecule?
Answer: 4.6 ± 1.5 µM

Question: And the “TGI HCT-116” value [3, 4]?
Answer: 10.3 ± 3.8 µM
